Assay results as given in BindingDB's records for doi:10.1073/pnas.121170598 (Merck Research Laboratories, 2001).
Bridge positions count the residues as written; N and C are the ends. Peptide text beside a SMILES is read from it.

Tests used:
[1] = molecular target: Melanin-concentrating hormone receptor 1 (Homo sapiens, UniProt Q99705)
[2] = molecular target: Melanin-concentrating hormone receptor 2 (Homo sapiens, UniProt Q969V1)
Melanin-concentrating hormone receptor 2, sequence (Q969V1 whole entry): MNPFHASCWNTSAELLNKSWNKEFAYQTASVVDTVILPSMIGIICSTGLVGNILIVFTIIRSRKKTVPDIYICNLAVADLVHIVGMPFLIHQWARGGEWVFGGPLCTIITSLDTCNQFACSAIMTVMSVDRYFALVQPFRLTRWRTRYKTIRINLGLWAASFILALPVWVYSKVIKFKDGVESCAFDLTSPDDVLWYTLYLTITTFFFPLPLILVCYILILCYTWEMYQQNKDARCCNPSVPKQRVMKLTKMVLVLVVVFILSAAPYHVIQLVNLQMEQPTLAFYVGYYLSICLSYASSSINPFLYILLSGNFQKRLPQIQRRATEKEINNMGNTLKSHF

Melanin-concentrating hormone receptor 1, sequence (Q99705 as listed by the source): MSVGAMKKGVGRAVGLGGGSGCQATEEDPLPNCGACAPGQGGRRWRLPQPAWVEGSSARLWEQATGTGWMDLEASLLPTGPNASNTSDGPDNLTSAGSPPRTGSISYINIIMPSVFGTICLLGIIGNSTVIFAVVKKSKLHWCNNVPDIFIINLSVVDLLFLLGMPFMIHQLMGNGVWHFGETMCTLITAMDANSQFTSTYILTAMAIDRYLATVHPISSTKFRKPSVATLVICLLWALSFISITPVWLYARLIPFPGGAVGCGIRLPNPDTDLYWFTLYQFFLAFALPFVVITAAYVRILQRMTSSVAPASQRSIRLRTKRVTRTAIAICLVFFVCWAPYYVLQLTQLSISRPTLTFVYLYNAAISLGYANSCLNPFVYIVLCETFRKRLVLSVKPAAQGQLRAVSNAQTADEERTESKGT

Compound | Ki [1] [nM] | Ki [2] [nM]
CSCC[C@@H]1NC(=O)[C@@H](NC(=O)[C@H](CCCNC(=N)N)NC(=O)[C@H](CCSC)NC(=O)[C@@H](NC(=O)[C@@H](N)CC(=O)O)[C@@H](C)O)CSSC[C@@H](C(=O)N[C@@H](Cc2c[nH]c3ccccc23)C(=O)N[C@@H](CCC(=O)O)C(=O)N[C@H](C(=O)O)C(C)C)NC(=O)[C@@H]2CCCN2C(=O)[C@H](CCCNC(=N)N)NC(=O)[C@H](Cc2ccc(O)cc2)NC(=O)[C@H](C(C)C)NC(=O)[C@H](CCCNC(=N)N)NC(=O)CNC(=O)[C@H](C(C)C)NC1=O [Salmon MCH] (H-DTMRCMVGRVYRPCWEV-OH; disulfide 5-14) | 0.2 | 437
CSCC[C@@H]1NC(=O)[C@@H](NC(=O)[C@H](CCCNC(=N)N)NC(=O)[C@H](CC(C)C)NC(=O)[C@H](CCSC)NC(=O)[C@H](CC(=O)O)NC(=O)[C@H](Cc2ccccc2)NC(=O)[C@@H](N)CC(=O)O)CSSC[C@@H](C(=O)N[C@@H](Cc2c[nH]c3ccccc23)C(=O)N[C@@H](CCC(N)=O)C(=O)N[C@H](C(=O)O)C(C)C)NC(=O)[C@@H]2CCCN2C(=O)[C@H](CCCNC(=N)N)NC(=O)[C@H](Cc2ccc(O)cc2)NC(=O)[C@H](C(C)C)NC(=O)[C@H](CCCNC(=N)N)NC(=O)CNC(=O)[C@H](CC(C)C)NC1=O [hMCH] | – | 1.5
